# Test results taken from patent US9540325B2, “N1-cyclic amine-N5-substituted phenyl biguanide derivatives, methods of preparing the same and pharmaceutical composition comprising the same” (Immunomet Therapeutics, Inc., priority 2011, dated 2017).
# Tests used:
# [1] = tested on: Snail; test: EMT inhibitory effect by inhibition of Snail expression (immunoblotting) in MCF7 cells; format: cell-based, human; conditions: MCF7, 48 hours, untreated control = 100%
# Description: Cells undergoing EMT owing to various cytokines and growth factors can acquire motility and thus move a distance to form tumors in new tissues. Therefore, the metastasis of cancer cells can be inhibited by controlling expression of EMT-related transcription factors to hinder EMT. Based on these facts, the activities of biguanide derivatives that inhibit Snail expression, which is a transcription factor inducing EMT in the MCF7 cell line derived from human breast cancer, were measured and simple experimental methods are described, as follows.
# MCF7 cells derived from human breast cancer (commercially available from Korean Cell Line Bank) were cultured in a DMEM medium supplemented with 10% (v/v) fetal bovine serum (commercially available from Gibco Life Technologies (US)), put into a 6-well plate so that the number of cultured cells could amount to approximately 5×10^5 cells per well, and then incubated in an incubator supplied with 5% CO2 (culture temperature: 37° C., pH: 7.0 to 7.4). The culture media were treated with phenformin hydrochloride and the compounds synthesized in the examples at contents of 1 μM and 10 μM, respectively, and then incubated for 48 hours. Metformin hydrochloride was used as the control, and the cells were treated with 1 mM and 10 mM metformin hydrochloride. After 48 hours, the cells were lysed in a cell lysis buffer containing 10 mM Tris HCl (pH7.4), 100 mM NaCl, 1 mM EDTA, 1 mM EGTA, 1 mM NaF, 20 mM Na4P2O7, 2 mM Na3VO4, 1% TritonX-100, 10% glycerol, 0.5% deoxycholate and 1 mM PMSF. Then, 25 μg of the cell lysate was electrophoresized in an SDS-PAGE gel, and then transferred to a […] membrane (commercially available from Amersham Life Science). The membrane reacted with rat monoclonal anti-human Snail (commercially available from Cell signaling Technology) or mouse monoclonal anti-β-actin (commercially available from Santa cruz Biotechnology), and unbound antibodies were removed. In this case, anti-β-actin was used as the antibody to ensure that the amount of proteins loaded into the SDS-PAGE gel is identical. The membrane was reacted again with a secondary antibody, anti-rat IgG (commercially available from Cell signaling Technology) or anti-mouse IgG (commercially available from Santa Cruz Biotechnology). Finally, the antibody bound to the membrane was detected using an ECL Plus system (commercially available from Amersham Life Science). Also, the expression level of Snail with respect to β-actin was analyzed using a Scion image analysis program. Here, when it was assumed that the expression level of the untreated control was 100%, the expression level of the Snail by treatment with the compounds synthesized in the examples was indicated as a percentage (%).
# [2] = Solubility in water of hydrochloride and acetate salts; format: physicochemical; conditions: content 5 mg/1 ml distilled water, room temperature
# Description: The solubilities in water of the hydrochlorides prepared in Examples 26, 27, 32, 33, 48, 49, 53 and 54, and the solubilities in water of the acetates prepared in Examples 70 to 77, were compared.
# The experimental conditions and methods are described, as follows.
# 1) 1 ml of distilled water is added to a container including 5 mg of salt at room temperature.
# 2) The resulting mixture is stirred for 10 minutes, and then kept at room temperature for 1 hour.
# 3) Undissolved residual salt is recovered and weighed.
# 4) The ratio of the amount of the recovered salt and the amount of the dissolved salt is calculated.
# 5) Operations 1) to 4) are repeatedly performed with increasing amount (i.e., 10, 15, 20, 25 and 30 mg) of salt.
# The experimental procedures were performed for each of the hydrochlorides of Examples 26, 27, 32, 33, 48, 49, 53 and 54 and the acetates of Examples 70 to 77. The comparative solubilities obtained using the hydrochlorides of Examples 26, 27, 32, 33, 48, 49, 53 and 54 and the acetates of Examples 70 to 77 are listed in the following Table 1.
"Solubility in water (%), hydrochloride salt [2] [%]",SMILES,Snail Expression Rate (%) ([1]; 1 μM),Snail Expression Rate (%) ([1]; 10 μM)
,"Cl.N=C(NC(=N)N1CCCCC1)Nc1cccc(Cl)c1 [Example 20, N1-piperidine-N5-(3-chloro)phenyl biguanide hydrochloride]",57.6,8.7
,"Cl.N=C(NC(=N)N1CCCCCC1)Nc1cccc(Cl)c1 [Example 21, N1-azepane-N5-(3-chloro)phenyl biguanide hydrochloride]",83.5,29.8
80,"Cl.N=C(NC(=N)N1CCCC1)Nc1ccc(C(F)(F)F)cc1 [Example 26, N1-pyrrolidine-N5-(4-trifluoromethyl)phenyl biguanide hydrochloride]",57.2,14.6
20,"Cl.N=C(NC(=N)N1CCCCC1)Nc1ccc(C(F)(F)F)cc1 [Example 27, N1-piperidine-N5-(4-trifluoromethyl)phenyl biguanide hydrochloride]",52.7,13.2
